Data published in patent publication US10882856B2 (BeiGene, Ltd., priority 2017, dated 2021).
Like-named read-outs stand apart in the source and are kept apart here.

Assays:
[1] = biological target: T1, IDO1 (Homo sapiens, UniProt P14902); test: IDO1 enzymatic assay; assay type: biochemical; set-up: His tag (N); made in house; host or cells: E. coli; conditions: recombinant IDO1, 1.3 mM D-tryptophan
Experimental: Recombinant IDO1 was overexpressed and purified from E. coli cells with an N-terminal His tag. IDO1 enzymatic assay was carried out using a methodology similar to described in the literature (J. Biol. Chem. (1980), 255, 1339-1345.). The reaction mixture contains 50 nM IDO1, 1.3 mM D-tryptophan, 5 mM L-ascorbic acid, […] methylene Blue, 0.4 mg/mL catalase and compound (or DMSO) in a buffer containing 50 mM potassium phosphate pH 7.5 and 0.1% BSA. After incubation at 24′C for 1.5 hours, absorbance of the reaction mixture was continuously read at 321 nm to monitor the formation of N′-formylkynurenine by a FULOstar OMEGA plate reader (BMG LABTECH) for 1 hour. The enzymatic activity was determined by measuring the slope of the linear absorbance increase as a function of time. The IC50s are calculated based on remaining enzyme activity in the presence of increasing concentrations of compounds.

[2] = biological target: T2, cellular IDO1 in HeLa cells (Homo sapiens, UniProt P14902); test: HeLa cell-based IDO1 Kyn (kynurenine) production assay; conditions: IDO1 induced by IFN-γ, 48 hours, read-out: cell-based EC50 value (IDO1 expressed Hela cells)
T2 construct: endogenous in cells; host or cells: HeLa (ATCC), induced with human recombinant IFN-γ
Experimental: HeLa Cell-Based IDO1 Kyn (Kynurenine) Production Assay:
The inhibitory activity of IDO1 inhibitors is determined by using a colorimetric reaction to measure Kyn generated from L-Trp (L-Tryptophon) oxidation by cellular IDO1 in HeLa cells after induction of IDO1 expression by IFN-γ.
Hela cells were obtained from the American Type Culture Collection and recovered in 10% FBS-containing phenol red-free DMEM medium. Cells were plated onto a 96-well plate (100 μl/well) at 8000 cells per well and kept at 37° C. in a humidified incubator supplied with 5% CO2 4 hours later, Human recombinant IFN-γ (8901SC, CST) was added to cells (final concentration 100 ng/mL) to stimulate endogenous IDO11. Compounds at different concentrations diluted in dimethylsulfoxide (DMSO) were added simultaneously with IFN-γ and 0.4 mM L-Trp. Cells were kept at 37° C. in a humidified incubator supplied with 5% CO2. After 48 hours of incubation, 100 μl supernatant from each well was removed to a new plate. The protein in the medium was precipitated with the addition of 8 μl 6N trichloroacetic acid. The plate was incubated at 60° C. for 30 minutes and then centrifugation at 2500 rpm for 10 minutes to remove sediments. […] The absorbance at 480 nm wavelength derived from Kyn was measured using a PHERAstar FS plate reader (BMG LABTECH). […]

[3] = biological target: T1, IDO1; test: IDO1 enzymatic assay; assay type: biochemical; set-up: His tag (N); made in house; host or cells: E. coli; conditions: read-out: Enzyme IC50 IDO1
How it was run: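 IC50 values reflect remaining IDO1 activity over increasing compound concentrations. The enzyme (50 nM, N-terminally His-tagged, purified from E. coli) was incubated for 1.5 hours at 24 °C with compound, 1.3 mM D-tryptophan, 5 mM L-ascorbic acid, methylene blue and 0.4 mg/mL catalase in 50 mM potassium phosphate pH 7.5 with 0.1% BSA. The slope of N'-formylkynurenine formation, read continuously at 321 nm for 1 hour, served as activity.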

[4] = biological target: T3, TDO2 in 293-TDO2 cells (Homo sapiens, UniProt P48775); test: 293-TDO2 cell-based TDO2 Kyn (kynurenine) production assay
T3 construct: expressed in transfected cells; host or cells: HEK293 (ATCC), stably transfected
How it was run: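 HEK293 cells stably transfected to express tryptophan 2,3-dioxygenase were seeded at 10000 per well in 96-well plates in phenol red-free DMEM with 10% FBS. After 4 hours, DMSO-diluted compound dilutions were added, and cells were kept 48 hours at 37 °C, 5% CO2. Supernatant was deproteinised with trichloroacetic acid, and kynurenine was measured at 480 nm after adding 2% 4-(dimethylamino)benzaldehyde. Potency came from four-parameter logistic fits in XLfit.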

[5] = biological target: T4, TDO (Homo sapiens, UniProt P48775); test: TDO enzymatic assay; assay type: biochemical; conditions: read-out: Enzyme IC50 TDO
T4 construct: His tag (C); made in house; host or cells: E. coli
How it was run: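 Recombinant C-terminally His-tagged TDO purified from E. coli (100 nM) was tested with 0.5 mM L-tryptophan (Km concentration). Otherwise the IDO1 enzymatic set-up was used: ascorbic acid, methylene blue, catalase, and potassium phosphate pH 7.5 with BSA, incubated 1.5 hours. N'-formylkynurenine absorbance was read continuously at 321 nm, and activity was taken as the slope. IC50 was calculated from remaining enzyme activity across increasing compound concentrations.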

[6] = biological target: T1, IDO1; test: Hela cell-based IDO1 assay; conditions: Hela cells
How it was run: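 Kynurenine was measured at 480 nm in trichloroacetic acid-deproteinised supernatant after adding 2% 4-(dimethylamino)benzaldehyde. This supernatant came from HeLa cells seeded at 8000 per well in 96-well plates in phenol red-free DMEM with 10% FBS and, from 4 hours after seeding, exposed for 48 hours at 37 °C, 5% CO2 to DMSO-diluted compound dilutions, IFN-γ (final 100 ng/mL) and 0.4 mM L-Trp. The resulting data were fitted with a four-parameter logistic model in XLfit. Potency was taken from those fits.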

[7] = biological target: T5, cellular TDO2 in HEK293-TDO2 cells (Homo sapiens, UniProt P48775); test: 293-TDO2 cell-based assay (Kyn colorimetric); conditions: 48 hours of incubation
T5 construct: expressed in transfected cells; host or cells: HEK293 (ATCC), stably transfected
How it was run: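 HEK293 cells stably expressing TDO2 (10000/well, phenol red-free DMEM, 10% FBS) were dosed 4 h after plating and incubated 48 h at 37° C. Supernatant Kyn was measured after TCA precipitation by 4-(dimethylamino)benzaldehyde colour at 480 nm. IC50 came from four-parameter logistic fits.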

T1 sequence (P14902 whole entry): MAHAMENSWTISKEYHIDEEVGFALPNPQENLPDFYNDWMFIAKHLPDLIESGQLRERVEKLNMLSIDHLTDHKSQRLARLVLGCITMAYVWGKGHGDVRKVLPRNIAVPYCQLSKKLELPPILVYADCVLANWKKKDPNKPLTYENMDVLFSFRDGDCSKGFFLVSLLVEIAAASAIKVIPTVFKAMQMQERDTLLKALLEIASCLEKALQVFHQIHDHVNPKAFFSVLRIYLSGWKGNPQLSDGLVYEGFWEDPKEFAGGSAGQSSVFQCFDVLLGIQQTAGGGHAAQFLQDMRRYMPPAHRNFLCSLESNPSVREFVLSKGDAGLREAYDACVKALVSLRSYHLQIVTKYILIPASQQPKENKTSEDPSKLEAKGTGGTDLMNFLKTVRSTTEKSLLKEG
T3 sequence (P48775 whole entry): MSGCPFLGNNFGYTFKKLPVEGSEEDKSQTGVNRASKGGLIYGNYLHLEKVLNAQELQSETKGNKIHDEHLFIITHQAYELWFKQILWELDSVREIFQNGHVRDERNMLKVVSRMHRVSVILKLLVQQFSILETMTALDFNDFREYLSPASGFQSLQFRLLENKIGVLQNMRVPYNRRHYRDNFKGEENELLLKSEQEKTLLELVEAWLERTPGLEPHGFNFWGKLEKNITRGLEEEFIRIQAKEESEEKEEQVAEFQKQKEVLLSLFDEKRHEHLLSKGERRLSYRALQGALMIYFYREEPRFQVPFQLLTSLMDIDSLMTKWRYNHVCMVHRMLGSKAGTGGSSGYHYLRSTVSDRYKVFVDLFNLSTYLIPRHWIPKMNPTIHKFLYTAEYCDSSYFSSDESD
T2 sequence (P14902 whole entry): as the sequence (P14902 whole entry) above
T4 sequence (P48775 whole entry): as the sequence (P48775 whole entry) above
T5 sequence (P48775 whole entry): as above

IC50 [1] [nM] | EC50 [2] [nM] | IC50 [3] [nM] | EC50 [4] [nM] | IC50 [5] [nM] | EC50 [6] [nM] | EC50 [7] [nM] | Structure (SMILES)
67 | > 10000 | 67 | > 10000 | – | – | – | OC(c1c(C2CC2)ccc2cncn12)[C@H]1CC[C@@H](c2ccc(Cl)cc2)CC1 (single isomer, unassigned) [Example D103d]
22 | 130 | 22 | > 10000 | 8100 | 131 | > 10000 | OC(c1c(C2CC2)ccc2cncn12)[C@H]1CC[C@H](c2ccc(Cl)cc2)CC1 (single isomer, unassigned) [Example D103c]
